In ChEMBL document CHEMBL3044782, “Structure-activity relationships of derivatives of fusapyrone, an antifungal metabolite of Fusarium semitectum” (J Agric Food Chem, 2004):
≈ marks a conversion by molar mass, not a printed value. Calls of active or inactive are those of the source. No cut-off for these calls is given here.

What was measured:
[1] = tested on: Meyerozyma guilliermondii; assay: Antifungal activity against Meyerozyma guilliermondii assessed as growth inhibition at 50 ug/ml after 24 to 72 hr by broth dilution method; assay type: functional, organism-based
Rhodotorula glutinis = assay: Antifungal activity against Rhodotorula glutinis assessed as growth inhibition at 50 ug/ml after 24 to 72 hr by broth dilution method; assay type: functional, organism-based
Botrytis cinerea [2] = assay: Antifungal activity against Botryotinia fuckeliana ITEM-966 after 48 hr by broth dilution method; assay type: functional; conditions: ITEM-966, 48 h
Botrytis cinerea [3] = assay: Antifungal activity against Botryotinia fuckeliana ITEM-966 after 24 hr by broth dilution method; assay type: functional; conditions: ITEM-966, 24 h
Botrytis cinerea [4] = assay: Antifungal activity against Botryotinia fuckeliana ITEM-966 after 72 hr by broth dilution method; assay type: functional; conditions: ITEM-966, 72 h
[5] = Toxicity against Artemia salina (brine shrimp) larvae after 24 hr; assay type: organism-based; conditions: in vivo
Aspergillus parasiticus [6] = assay: Antifungal activity against Aspergillus parasiticus Speare ITEM-11 after 24 hr by broth dilution method; assay type: functional; conditions: Speare ITEM-11, 24 h
Aspergillus parasiticus [7] = assay: Antifungal activity against Aspergillus parasiticus Speare ITEM-11 after 48 hr by broth dilution method; assay type: functional; conditions: Speare ITEM-11, 48 h
Aspergillus parasiticus [8] = assay: Antifungal activity against Aspergillus parasiticus Speare ITEM-11 after 72 hr by broth dilution method; assay type: functional; conditions: Speare ITEM-11, 72 h
[9] = tested on: Penicillium brevicompactum; assay: Antifungal activity against Penicillium brevicompactum Dierckx ITEM-449 after 24 hr by broth dilution method; assay type: functional; conditions: Dierckx ITEM-449, 24 h
[10] = tested on: Penicillium brevicompactum; assay: Antifungal activity against Penicillium brevicompactum Dierckx ITEM-449 after 72 hr by broth dilution method; assay type: functional; conditions: Dierckx ITEM-449, 72 h
[11] = tested on: Penicillium brevicompactum; assay: Antifungal activity against Penicillium brevicompactum Dierckx ITEM-449 after 48 hr by broth dilution method; assay type: functional; conditions: Dierckx ITEM-449, 48 h

| SMILES | growth inhibition (GI) [1] | growth inhibition (GI) (Rhodotorula glutinis) | MIC (Botrytis cinerea [2]) | MIC (Botrytis cinerea [3]) | MIC (Botrytis cinerea [4]) | LC50 at 24 h [5] | MIC (Aspergillus parasiticus [6]) | MIC (Aspergillus parasiticus [7]) | MIC (Aspergillus parasiticus [8]) | MIC [9] | MIC [10] | MIC [11] |
| --- | --- | --- | --- | --- | --- | --- | --- | --- | --- | --- | --- | --- |
| CCCCCCC(C)CC(C)CC(CO)CC(C)CCC(O)C(C)(C)c1cc(O)c([C@@H]2O[C@H](CO)C[C@H](O)[C@H]2O)c(=O)o1 (stereo partly specified) | inactive | inactive | 50 µg/mL (≈ 81.6 µM) | 50 µg/mL (≈ 81.6 µM) | 50 µg/mL (≈ 81.6 µM) |  |  |  |  |  |  |  |
| CCCCCCC(C)C/C(C)=C\C(CO)CC(C)CCC(O)C(C)(C)c1cc(O)c([C@@H]2O[C@H](CO)C[C@H](O)[C@H]2O)c(=O)o1 (stereo partly specified) | inactive | inactive | 50 µg/mL (≈ 81.9 µM) | 50 µg/mL (≈ 81.9 µM) | 50 µg/mL (≈ 81.9 µM) |  |  |  |  |  |  |  |
| CCCCCCC(C)C/C(C)=C\C(/C=C(C)/C=C/C(O)C(C)(C)c1cc(OC)c([C@@H]2O[C@H](CO)C[C@H](O)[C@H]2O)c(=O)o1)CO (stereo partly specified) | inactive | inactive | 50 µg/mL (≈ 80.5 µM) | 25 µg/mL (≈ 40.3 µM) | 50 µg/mL (≈ 80.5 µM) |  |  |  |  |  |  |  |
| CCCCCCC(C)C/C(C)=C\C(/C=C(C)/C=C/C(OC(C)=O)C(C)(C)c1cc(=O)c([C@@H]2O[C@H](COC(C)=O)C[C@H](OC(C)=O)[C@H]2OC(C)=O)c(OC)o1)COC(C)=O (stereo partly specified) | inactive | inactive |  |  |  | 51.9 µM |  |  |  |  |  |  |
| CCCCCCC(C)C/C(C)=C\C(/C=C(C)/C=C/C(OC(C)=O)C(C)(C)c1cc(OC)c([C@@H]2O[C@H](COC(C)=O)C[C@H](OC(C)=O)[C@H]2OC(C)=O)c(=O)o1)COC(C)=O (stereo partly specified) | inactive | inactive |  |  |  | 46.1 µM |  |  |  |  |  |  |
| CCCCCCC(C)C/C(C)=C\C(C)/C=C(C)/C=C/C(OC(C)=O)C(C)(C)c1cc(OC(C)=O)c([C@@H]2O[C@H](COC(C)=O)C[C@H](OC(C)=O)[C@H]2OC(C)=O)c(=O)o1 (stereo partly specified) | inactive | inactive |  |  |  | 39.7 µM |  |  |  |  |  |  |
| CCCCCCC(C)C/C(C)=C\C(/C=C(C)/C=C/C(OC(C)=O)C(C)(C)c1cc(OC(C)=O)c([C@@H]2O[C@H](COC(C)=O)C[C@H](OC(C)=O)[C@H]2OC(C)=O)c(=O)o1)COC(C)=O (stereo partly specified) | inactive | inactive |  |  |  | 85.6 µM |  |  |  |  |  |  |
| CCCCCCC(C)C/C(C)=C\C(/C=C(C)/C=C/C(O)C(C)(C)c1cc(O)c(CCO)c(=O)o1)CO (stereo unspecified) | inactive | inactive |  |  |  |  |  |  |  |  |  |  |
| Nc1c(Cl)cc([N+](=O)[O-])cc1Cl [ALLISAN] |  |  | 6.25 µg/mL (≈ 30.2 µM) | 3.12 µg/mL (≈ 15.1 µM) | 6.25 µg/mL (≈ 30.2 µM) |  | > 25 µg/mL | > 25 µg/mL | > 25 µg/mL | 12.5 µg/mL (≈ 60.4 µM) | > 25 µg/mL | 25 µg/mL (≈ 121 µM) |
| CCCCNC(=O)n1c(NC(=O)OC)nc2ccccc21 [BENOMYL] |  |  | 0.19 µg/mL (≈ 0.654 µM) | 0.19 µg/mL (≈ 0.654 µM) | 0.19 µg/mL (≈ 0.654 µM) |  | > 25 µg/mL | > 25 µg/mL | > 25 µg/mL | > 25 µg/mL | > 25 µg/mL | > 25 µg/mL |
| CCCCCCC(C)C/C(C)=C\C(C)/C=C(C)/C=C/C(O)C(C)(C)c1cc(O)c([C@@H]2O[C@H](CO)C[C@H](O)[C@H]2O)c(=O)o1 (stereo partly specified) [DEOXYNEOFUSAPYRONE] | inactive | inactive | 1.56 µg/mL (≈ 2.64 µM) | 0.78 µg/mL (≈ 1.32 µM) | 1.56 µg/mL (≈ 2.64 µM) | 37.1 µM | 0.78 µg/mL (≈ 1.32 µM) | 0.78 µg/mL (≈ 1.32 µM) | 0.78 µg/mL (≈ 1.32 µM) | 0.78 µg/mL (≈ 1.32 µM) | 1.56 µg/mL (≈ 2.64 µM) | 1.56 µg/mL (≈ 2.64 µM) |
| CCCCCCC(C)C/C(C)=C\C(/C=C(C)/C=C/C(O)C(C)(C)c1cc(O)c([C@@H]2O[C@H](CO)C[C@H](O)[C@H]2O)c(=O)o1)CO (stereo partly specified) [Fusapyrone] | inactive | inactive | 3.12 µg/mL (≈ 5.14 µM) | 1.56 µg/mL (≈ 2.57 µM) | 6.25 µg/mL (≈ 10.3 µM) | > 200 µM | 6.25 µg/mL (≈ 10.3 µM) | 6.25 µg/mL (≈ 10.3 µM) | 12.5 µg/mL (≈ 20.6 µM) | 0.78 µg/mL (≈ 1.29 µM) | 6.25 µg/mL (≈ 10.3 µM) | 3.12 µg/mL (≈ 5.14 µM) |
